Laboratory results from ChEMBL document CHEMBL3997852, “Discovery of Fluorine-Containing Benzoxazinyl-oxazolidinones for the Treatment of Multidrug Resistant Tuberculosis” (ACS Med Chem Lett, 2017).
≈ marks a conversion by molar mass, not a printed value.

Columns and labels:
[1] = system: Mycobacterium tuberculosis; test: Antitubercular activity against isoniazid/rifampicin-resistant Mycobacterium tuberculosis 16892 clinical isolate after 7 days by microplate alamar blue assay; type: functional; details: Mycobacterium tuberculosis, 16892, 168 h
[2] = system: Mycobacterium tuberculosis; test: Antitubercular activity against isoniazid/rifampicin/streptomycin/ethambutol/levofloxacin-resistant Mycobacterium tuberculosis 16802 clinical isolate after 7 days by microplate alamar blue assay; type: functional; details: Mycobacterium tuberculosis, 16802, 168 h

In the case of O=C(NC[C@@H]1OC(=O)N2c3cc(F)c(C4=CCN(CCO)CC4)cc3OC[C@@H]12)C1CC1, the MIC90 [1] was 0.5 µg/mL (≈ 1.16 µM) and the MIC90 [2] was 1 µg/mL (≈ 2.32 µM).
In the case of CC(=O)NC[C@@H]1OC(=O)N2c3cc(F)c(C4=CCN(CCO)CC4)cc3OC[C@@H]12, the MIC90 [1] was 0.5 µg/mL (≈ 1.23 µM) and the MIC90 [2] was 2 µg/mL (≈ 4.93 µM).
Compound CC(=O)NC[C@@H]1OC(=O)N2c3cc(F)c(C4=CCN(C(=O)CO)CC4)cc3OC[C@@H]12 has an MIC90 [1] of 0.25 µg/mL (≈ 0.596 µM) and an MIC90 [2] of 0.5 µg/mL (≈ 1.19 µM).
In the case of CC(=O)NC[C@@H]1OC(=O)N2c3cc(F)c(C4=CCN(C(=O)[C@@H](O)CO)CC4)cc3OC[C@@H]12, the MIC90 [1] was 0.25 µg/mL (≈ 0.556 µM) and the MIC90 [2] was 1 µg/mL (≈ 2.23 µM).
CC(=O)NC[C@@H]1OC(=O)N2c3cc(F)c(C4=CCN(C(=O)CN)CC4)cc3OC[C@@H]12.Cl gave an MIC90 [1] of 0.25 µg/mL and an MIC90 [2] of 2 µg/mL.
NNC(=O)c1ccncc1 [ISONIAZID] showed an MIC90 [1] greater than 40 µg/mL and an MIC90 [2] of 2.5 µg/mL (≈ 18.2 µM).
CO[C@H]1/C=C/O[C@@]2(C)Oc3c(C)c(O)c4c(O)c(c(/C=N/N5CCN(C)CC5)c(O)c4c3C2=O)NC(=O)/C(C)=C\C=C\[C@H](C)[C@H](O)[C@@H](C)[C@@H](O)[C@@H](C)[C@H](OC(C)=O)[C@@H]1C [RIFAMPIN] was tested, and the MIC90 [1] was greater than 40 µg/mL and the MIC90 [2] was 20 µg/mL (≈ 24.3 µM).
